Source: the NIST ThermoML archive (doi:10.1016/j.jct.2016.08.022)

Assay: molar heat capacity at constant pressure
Conditions: 101.33 kPa, Small (less than 1 g) adiabatic calorimetry

CCC(=O)O[C@]1(C(=O)COC(C)=O)CC[C@H]2[C@@H]3C[C@H](C)C4=CC(=O)C=C[C@]4(C)[C@H]3[C@@H](O)C[C@@]21C [Methylprednisolone aceponate]
Conditions	molar heat capacity at constant pressure [J/K/mol]
5 K, Crystal 2	1.87
7.53 K, Crystal 2	6.019
7.84 K, Crystal 2	6.56
8.09 K, Crystal 2	7.014
8.41 K, Crystal 2	7.67
8.68 K, Crystal 2	8.278
9 K, Crystal 2	8.893
9.32 K, Crystal 2	9.535
9.64 K, Crystal 2	10.2
9.98 K, Crystal 2	10.97
10 K, Crystal 2	11
10.31 K, Crystal 2	11.76
10.64 K, Crystal 2	12.47
10.99 K, Crystal 2	13.1
11.33 K, Crystal 2	13.78
11.69 K, Crystal 2	14.32
12.05 K, Crystal 2	15.03
12.88 K, Crystal 2	16.64
14.18 K, Crystal 2	19.38
15 K, Crystal 2	21.09
15.44 K, Crystal 2	22.08
16.83 K, Crystal 2	25.33
18.19 K, Crystal 2	28.78
19.58 K, Crystal 2	32.36
20 K, Crystal 2	33.51
22.18 K, Crystal 2	39.37
25 K, Crystal 2	47.69
25.63 K, Crystal 2	49.56
29.09 K, Crystal 2	59.46
30 K, Crystal 2	61.69
32.6 K, Crystal 2	68.53
36.13 K, Crystal 2	78.23
39.68 K, Crystal 2	88.41
40 K, Crystal 2	89.06
43.24 K, Crystal 2	97.8
46.82 K, Crystal 2	106.2
50 K, Crystal 2	115
50.41 K, Crystal 2	116.3
54 K, Crystal 2	126.6
57.6 K, Crystal 2	136
60 K, Crystal 2	142.6
61.21 K, Crystal 2	145.2
64.82 K, Crystal 2	155
68.42 K, Crystal 2	163.9
70 K, Crystal 2	167.5
72.02 K, Crystal 2	173
75.66 K, Crystal 2	181.2
79.32 K, Crystal 2	190.9
80 K, Crystal 2	193.1
82.52 K, Crystal 2	200.1
82.95 K, Crystal 2	200.9
85.14 K, Crystal 2	206.2
86.58 K, Crystal 2	209.8
87.56 K, Crystal 2	212.6
89.97 K, Crystal 2	218.2
90 K, Crystal 2	218.2
92.39 K, Crystal 2	223.5
94.8 K, Crystal 2	229
97.21 K, Crystal 2	234.8
97.3 K, Crystal 2	235.6
99.62 K, Crystal 2	240.5
100 K, Crystal 2	241.2
100.7 K, Crystal 2	243.6
102.02 K, Crystal 2	245.8
104.08 K, Crystal 2	251
104.42 K, Crystal 2	251.6
106.93 K, Crystal 2	257.8
107.83 K, Crystal 2	258.9
109.22 K, Crystal 2	263
109.71 K, Crystal 2	263.2
110 K, Crystal 2	264.5
111.62 K, Crystal 2	268.1
112.99 K, Crystal 2	270.3
114.02 K, Crystal 2	273.7
116 K, Crystal 2	277
116.42 K, Crystal 2	278.5
118.81 K, Crystal 2	283.7
119.02 K, Crystal 2	283.2
120 K, Crystal 2	286.4
121.2 K, Crystal 2	288.9
122.04 K, Crystal 2	290.1
123.59 K, Crystal 2	295.1
125.06 K, Crystal 2	297.7
125.98 K, Crystal 2	300
128.08 K, Crystal 2	305.6
128.36 K, Crystal 2	306
130 K, Crystal 2	309.4
130.74 K, Crystal 2	310.7
131.09 K, Crystal 1	312.1
133.12 K, Crystal 1	311.6
134.11 K, Crystal 1	310
135.5 K, Crystal 1	309.5
137.13 K, Crystal 1	310.6
137.88 K, Crystal 1	312.2
140 K, Crystal 1	315.4
140.15 K, Crystal 1	315.8
140.25 K, Crystal 1	315.6
142.62 K, Crystal 1	319.4
143.15 K, Crystal 1	320.6
144.98 K, Crystal 1	324.5
146.15 K, Crystal 1	326.3
147.34 K, Crystal 1	328.3
149.14 K, Crystal 1	331.8
149.69 K, Crystal 1	333.1
150 K, Crystal 1	333
152.05 K, Crystal 1	336.9
152.14 K, Crystal 1	336.7
154.41 K, Crystal 1	341
155.13 K, Crystal 1	342
156.76 K, Crystal 1	344
158.09 K, Crystal 1	347.4
159.09 K, Crystal 1	348.8
160 K, Crystal 1	351
161.07 K, Crystal 1	352.5
161.43 K, Crystal 1	353.5
163.77 K, Crystal 1	357.7
164.05 K, Crystal 1	358.2
166.12 K, Crystal 1	361.8
167.01 K, Crystal 1	363.8
168.46 K, Crystal 1	366.9
169.98 K, Crystal 1	368.9
170 K, Crystal 1	368.7
170.8 K, Crystal 1	371.1
172.94 K, Crystal 1	373.7
173.13 K, Crystal 1	375
175.46 K, Crystal 1	378.6
175.89 K, Crystal 1	379.5
177.8 K, Crystal 1	381
178.84 K, Crystal 1	383.9
180 K, Crystal 1	386.3
180.1 K, Crystal 1	385.2
